The test system of one series is Mus musculus. Briefly: Unbound clearance in mouse at 10 mg/kg, po. The settings on record: in vivo. Format: ADME, organism-based.
In series [1] the target is T1, Bromodomain-containing protein 4 (Homo sapiens, UniProt O60885). Briefly: Binding affinity to BRD4 bromodomain 2 (E352 to M457 amino acids) (unknown origin) using Alexa647-labeled BET-inhibitor as fluorescent probe by bromodomain TR-FRET binding assay.
Series [2] deals with T1, Bromodomain-containing protein 4. Briefly: Binding affinity to BRD4 in human H1299 cells stably expressing E2 and HPV16-LCR luciferase reporter incubated for 24 hrs by Bright-Glo luciferase reporter gene assay based BRD4 engagement assay. In kind it is cell-based.
The target in the next series is T2, Peregrin (Homo sapiens) (UniProt P55201).
T2 sequence (whole entry): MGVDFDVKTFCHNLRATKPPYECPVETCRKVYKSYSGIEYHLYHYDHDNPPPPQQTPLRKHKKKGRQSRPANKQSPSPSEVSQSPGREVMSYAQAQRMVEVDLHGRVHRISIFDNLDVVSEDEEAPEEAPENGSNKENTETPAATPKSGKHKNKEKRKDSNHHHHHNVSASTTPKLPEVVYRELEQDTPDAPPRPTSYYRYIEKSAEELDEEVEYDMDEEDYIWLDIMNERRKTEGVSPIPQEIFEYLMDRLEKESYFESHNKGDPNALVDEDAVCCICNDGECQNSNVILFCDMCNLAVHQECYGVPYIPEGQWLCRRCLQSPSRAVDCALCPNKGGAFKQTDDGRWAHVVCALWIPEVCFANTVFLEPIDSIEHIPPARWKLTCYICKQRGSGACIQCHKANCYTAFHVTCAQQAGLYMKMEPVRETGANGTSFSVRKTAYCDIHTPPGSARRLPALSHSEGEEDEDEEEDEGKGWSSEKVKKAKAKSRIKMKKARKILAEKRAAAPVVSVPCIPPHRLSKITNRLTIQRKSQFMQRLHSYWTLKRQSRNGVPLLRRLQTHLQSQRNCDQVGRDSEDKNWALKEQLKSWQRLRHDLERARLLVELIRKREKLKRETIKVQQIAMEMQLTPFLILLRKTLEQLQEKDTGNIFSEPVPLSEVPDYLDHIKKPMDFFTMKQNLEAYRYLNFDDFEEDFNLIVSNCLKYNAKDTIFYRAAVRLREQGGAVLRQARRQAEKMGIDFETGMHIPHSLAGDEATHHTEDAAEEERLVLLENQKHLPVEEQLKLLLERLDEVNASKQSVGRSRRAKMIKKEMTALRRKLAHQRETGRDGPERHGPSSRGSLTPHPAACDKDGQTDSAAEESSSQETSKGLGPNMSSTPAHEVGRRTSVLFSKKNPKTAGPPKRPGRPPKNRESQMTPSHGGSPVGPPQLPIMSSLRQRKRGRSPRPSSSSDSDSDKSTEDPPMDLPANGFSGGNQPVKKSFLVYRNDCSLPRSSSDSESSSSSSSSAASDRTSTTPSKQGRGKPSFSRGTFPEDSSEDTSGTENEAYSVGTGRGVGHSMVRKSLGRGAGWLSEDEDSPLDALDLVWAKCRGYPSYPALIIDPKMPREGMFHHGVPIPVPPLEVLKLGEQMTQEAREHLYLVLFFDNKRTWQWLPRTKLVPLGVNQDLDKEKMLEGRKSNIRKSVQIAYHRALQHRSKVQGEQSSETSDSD
Put plainly: Binding affinity to human BRPF1 expressed in bacterial system assessed as remaining binding level at 1 uM by BROMOscan assay relative to control.

Series [3] addresses Histone acetyltransferase p300 (Homo sapiens) (UniProt Q09472). Put plainly: Binding affinity to human EP300 expressed in bacterial system assessed as remaining binding level at 1 uM by BROMOscan assay relative to control.
Series [4] concerns the target Transcription initiation factor TFIID subunit 1 (Homo sapiens) (UniProt P21675). Briefly: Binding affinity to human TAF1 bromodomain 2 expressed in bacterial system assessed as remaining binding level at 1 uM by BROMOscan assay relative to control.
Series [5] has as its target Bromodomain-containing protein 3 (Homo sapiens, UniProt Q15059). Briefly: Binding affinity to BRD3 bromodomain 1 to 2 (P24 to P416 amino acids) (unknown origin) using Alexa647-labeled BET-inhibitor as fluorescent probe by bromodomain TR-FRET binding assay.
The target of series [6] is T1, Bromodomain-containing protein 4. Put plainly: Binding affinity to BRD4 bromodomain 1 (K57 to E168 amino acids) (unknown origin) using Alexa647-labeled BET-inhibitor as fluorescent probe by bromodomain TR-FRET binding assay.
The target in series [7] is Nucleosome-remodeling factor subunit BPTF (Homo sapiens) (UniProt Q12830). Briefly: Binding affinity to human FALZ expressed in bacterial system assessed as remaining binding level at 1 uM by BROMOscan assay relative to control.

Results on three compounds are retold here after ChEMBL document CHEMBL4190379 (Bioorg Med Chem Lett, 2018).

Bromodomain-containing protein 3, sequence (Q15059 whole entry, the tested form may be a part): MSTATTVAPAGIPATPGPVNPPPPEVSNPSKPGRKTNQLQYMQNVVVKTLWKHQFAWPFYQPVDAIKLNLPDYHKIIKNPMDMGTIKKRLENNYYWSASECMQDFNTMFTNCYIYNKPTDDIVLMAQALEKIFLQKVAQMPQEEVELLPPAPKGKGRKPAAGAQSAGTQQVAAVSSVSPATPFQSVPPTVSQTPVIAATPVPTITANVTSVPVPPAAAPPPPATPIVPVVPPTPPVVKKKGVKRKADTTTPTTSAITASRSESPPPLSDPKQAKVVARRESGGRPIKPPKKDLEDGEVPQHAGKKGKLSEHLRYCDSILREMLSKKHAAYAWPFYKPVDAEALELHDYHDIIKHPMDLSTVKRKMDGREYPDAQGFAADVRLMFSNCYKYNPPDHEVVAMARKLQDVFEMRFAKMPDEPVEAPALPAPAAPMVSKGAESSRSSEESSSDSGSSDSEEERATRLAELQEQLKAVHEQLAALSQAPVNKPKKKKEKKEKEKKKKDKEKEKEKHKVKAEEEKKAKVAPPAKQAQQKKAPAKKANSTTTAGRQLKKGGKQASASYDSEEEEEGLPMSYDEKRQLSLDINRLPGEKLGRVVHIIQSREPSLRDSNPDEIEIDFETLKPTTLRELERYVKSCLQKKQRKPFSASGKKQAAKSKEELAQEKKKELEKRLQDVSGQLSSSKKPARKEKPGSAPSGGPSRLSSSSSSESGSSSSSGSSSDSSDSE
Histone acetyltransferase p300 (Homo sapiens), sequence (Q09472 whole entry): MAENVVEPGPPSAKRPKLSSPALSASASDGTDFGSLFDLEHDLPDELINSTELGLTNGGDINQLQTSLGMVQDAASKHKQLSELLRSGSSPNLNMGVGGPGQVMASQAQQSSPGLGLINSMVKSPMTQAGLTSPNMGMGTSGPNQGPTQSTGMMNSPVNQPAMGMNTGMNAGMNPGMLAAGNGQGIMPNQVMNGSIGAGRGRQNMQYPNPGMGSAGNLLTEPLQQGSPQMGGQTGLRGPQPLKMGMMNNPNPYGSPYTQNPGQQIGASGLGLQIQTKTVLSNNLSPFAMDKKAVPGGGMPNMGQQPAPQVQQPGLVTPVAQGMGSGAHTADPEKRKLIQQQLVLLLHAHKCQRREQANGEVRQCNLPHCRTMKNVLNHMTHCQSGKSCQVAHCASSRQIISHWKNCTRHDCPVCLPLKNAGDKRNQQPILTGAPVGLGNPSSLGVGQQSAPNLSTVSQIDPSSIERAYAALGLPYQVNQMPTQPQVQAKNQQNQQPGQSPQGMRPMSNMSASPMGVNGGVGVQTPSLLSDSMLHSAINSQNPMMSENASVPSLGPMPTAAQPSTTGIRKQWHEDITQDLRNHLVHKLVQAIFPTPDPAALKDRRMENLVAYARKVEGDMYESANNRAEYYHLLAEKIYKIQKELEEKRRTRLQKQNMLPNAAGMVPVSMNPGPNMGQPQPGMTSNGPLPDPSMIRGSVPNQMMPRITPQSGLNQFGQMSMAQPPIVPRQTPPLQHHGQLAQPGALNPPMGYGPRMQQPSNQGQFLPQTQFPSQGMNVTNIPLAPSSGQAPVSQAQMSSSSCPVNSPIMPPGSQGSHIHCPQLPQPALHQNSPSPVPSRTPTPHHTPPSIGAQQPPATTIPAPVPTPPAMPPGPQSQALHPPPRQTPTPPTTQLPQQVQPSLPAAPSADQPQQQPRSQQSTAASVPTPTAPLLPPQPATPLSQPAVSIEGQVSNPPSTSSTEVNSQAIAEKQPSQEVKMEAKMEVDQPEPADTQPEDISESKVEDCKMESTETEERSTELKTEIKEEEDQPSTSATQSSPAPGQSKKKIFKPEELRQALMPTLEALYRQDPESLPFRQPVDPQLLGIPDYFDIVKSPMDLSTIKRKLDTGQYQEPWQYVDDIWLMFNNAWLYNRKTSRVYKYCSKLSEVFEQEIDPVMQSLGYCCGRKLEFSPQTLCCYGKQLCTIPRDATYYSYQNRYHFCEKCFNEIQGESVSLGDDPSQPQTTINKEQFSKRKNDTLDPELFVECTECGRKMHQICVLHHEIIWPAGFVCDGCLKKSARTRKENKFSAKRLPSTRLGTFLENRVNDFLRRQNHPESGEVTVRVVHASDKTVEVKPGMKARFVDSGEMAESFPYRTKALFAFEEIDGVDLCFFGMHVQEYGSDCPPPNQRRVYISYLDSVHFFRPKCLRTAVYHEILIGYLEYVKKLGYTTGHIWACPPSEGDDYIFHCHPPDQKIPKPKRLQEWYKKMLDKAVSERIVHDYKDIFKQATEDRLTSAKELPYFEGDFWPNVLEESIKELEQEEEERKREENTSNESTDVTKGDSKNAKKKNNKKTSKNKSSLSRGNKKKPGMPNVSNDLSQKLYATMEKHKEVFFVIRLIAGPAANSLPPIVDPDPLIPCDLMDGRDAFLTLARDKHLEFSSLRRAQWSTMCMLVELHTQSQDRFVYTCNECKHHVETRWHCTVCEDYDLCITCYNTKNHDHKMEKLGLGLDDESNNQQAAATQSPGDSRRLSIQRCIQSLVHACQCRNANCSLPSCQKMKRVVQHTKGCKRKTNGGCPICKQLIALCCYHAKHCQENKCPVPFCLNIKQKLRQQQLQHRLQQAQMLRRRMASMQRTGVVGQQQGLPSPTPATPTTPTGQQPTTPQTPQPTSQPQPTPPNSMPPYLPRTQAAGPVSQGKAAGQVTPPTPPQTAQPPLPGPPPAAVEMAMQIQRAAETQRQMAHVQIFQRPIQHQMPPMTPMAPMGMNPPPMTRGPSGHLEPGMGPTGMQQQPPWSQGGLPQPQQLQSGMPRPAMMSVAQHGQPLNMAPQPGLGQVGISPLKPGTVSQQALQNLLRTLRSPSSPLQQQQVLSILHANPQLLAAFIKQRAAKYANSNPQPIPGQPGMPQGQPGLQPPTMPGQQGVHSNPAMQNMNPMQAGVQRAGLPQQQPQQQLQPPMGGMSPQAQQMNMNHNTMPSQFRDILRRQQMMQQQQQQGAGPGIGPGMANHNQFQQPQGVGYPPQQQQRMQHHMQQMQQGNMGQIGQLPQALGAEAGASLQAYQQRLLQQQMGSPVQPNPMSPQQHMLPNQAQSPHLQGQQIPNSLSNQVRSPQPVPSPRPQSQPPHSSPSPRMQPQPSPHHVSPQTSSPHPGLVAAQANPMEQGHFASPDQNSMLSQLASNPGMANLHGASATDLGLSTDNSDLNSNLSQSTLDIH
Transcription initiation factor TFIID subunit 1 (Homo sapiens), sequence (P21675 whole entry, the tested form may be a part): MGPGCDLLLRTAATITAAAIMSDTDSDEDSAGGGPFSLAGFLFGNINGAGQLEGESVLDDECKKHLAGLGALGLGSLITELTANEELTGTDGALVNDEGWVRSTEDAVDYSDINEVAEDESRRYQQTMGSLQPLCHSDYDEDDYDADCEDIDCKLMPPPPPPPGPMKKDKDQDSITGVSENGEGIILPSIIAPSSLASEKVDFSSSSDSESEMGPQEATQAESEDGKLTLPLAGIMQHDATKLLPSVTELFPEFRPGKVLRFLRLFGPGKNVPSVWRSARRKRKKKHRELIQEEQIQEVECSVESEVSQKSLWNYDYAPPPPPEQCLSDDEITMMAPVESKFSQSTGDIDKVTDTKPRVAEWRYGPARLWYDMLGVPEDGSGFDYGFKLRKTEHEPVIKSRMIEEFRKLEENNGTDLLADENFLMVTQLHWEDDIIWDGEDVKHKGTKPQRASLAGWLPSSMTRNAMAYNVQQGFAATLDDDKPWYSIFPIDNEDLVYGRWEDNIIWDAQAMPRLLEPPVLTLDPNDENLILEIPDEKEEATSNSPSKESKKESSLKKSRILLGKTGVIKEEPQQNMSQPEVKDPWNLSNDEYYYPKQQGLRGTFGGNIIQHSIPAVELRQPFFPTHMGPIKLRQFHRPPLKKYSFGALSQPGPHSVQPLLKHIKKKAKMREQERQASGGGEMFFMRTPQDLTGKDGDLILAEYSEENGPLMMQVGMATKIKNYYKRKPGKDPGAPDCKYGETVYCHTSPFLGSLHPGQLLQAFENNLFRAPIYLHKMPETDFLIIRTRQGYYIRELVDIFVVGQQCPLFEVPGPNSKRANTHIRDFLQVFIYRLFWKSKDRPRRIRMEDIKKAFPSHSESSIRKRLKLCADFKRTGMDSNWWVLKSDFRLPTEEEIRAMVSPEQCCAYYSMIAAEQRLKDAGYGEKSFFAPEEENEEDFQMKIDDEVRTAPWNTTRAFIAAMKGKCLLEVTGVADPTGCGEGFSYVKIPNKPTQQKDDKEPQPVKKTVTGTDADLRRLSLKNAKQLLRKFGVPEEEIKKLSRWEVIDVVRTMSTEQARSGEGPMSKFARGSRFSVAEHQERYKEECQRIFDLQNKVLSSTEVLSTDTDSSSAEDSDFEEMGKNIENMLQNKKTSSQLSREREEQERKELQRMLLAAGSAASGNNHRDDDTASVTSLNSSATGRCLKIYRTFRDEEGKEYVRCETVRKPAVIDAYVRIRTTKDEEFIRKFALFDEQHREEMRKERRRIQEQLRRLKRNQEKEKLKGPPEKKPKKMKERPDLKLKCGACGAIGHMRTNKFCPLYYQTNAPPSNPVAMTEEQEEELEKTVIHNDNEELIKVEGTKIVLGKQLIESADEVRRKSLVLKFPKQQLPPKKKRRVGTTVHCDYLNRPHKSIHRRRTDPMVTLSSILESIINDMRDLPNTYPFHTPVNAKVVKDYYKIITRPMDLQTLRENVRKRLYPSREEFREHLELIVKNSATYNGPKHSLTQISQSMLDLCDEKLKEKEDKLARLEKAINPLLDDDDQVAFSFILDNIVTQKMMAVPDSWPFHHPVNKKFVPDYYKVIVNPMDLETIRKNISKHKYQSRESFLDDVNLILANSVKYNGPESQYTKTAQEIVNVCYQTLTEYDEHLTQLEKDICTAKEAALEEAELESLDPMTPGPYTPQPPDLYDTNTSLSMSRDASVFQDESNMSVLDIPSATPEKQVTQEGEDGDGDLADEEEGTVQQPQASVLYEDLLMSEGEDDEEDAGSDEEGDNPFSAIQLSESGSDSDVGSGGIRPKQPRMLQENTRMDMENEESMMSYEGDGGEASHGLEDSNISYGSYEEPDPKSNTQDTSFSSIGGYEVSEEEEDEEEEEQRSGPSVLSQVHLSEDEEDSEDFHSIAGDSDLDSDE

In the case of `Cn1cc2c3c(c[nH]c(=O)c31)-c1cc(CS(C)(=O)=O)ccc1N(c1ccc(F)cc1)C2`, in the series with Mus musculus, the CL free stood at 1300 mL/min/kg. In addition, the results for the Ki in series [1], in series [5] and in [6] were 2.5 nM, 17 nM and 1.2 nM, respectively. Also, in series [2], the IC50 was 2.5 nM. The Activity on Peregrin (Homo sapiens) was 69%; in series [3] it was 42%; in series [4] it was 95%; in series [7] it was 100%.
`Cn1cc2c3c(c[nH]c3c1=O)CN(c1ccc(F)cc1F)c1ccc(CS(C)(=O)=O)cc1-2` showed a CL free in the series on Mus musculus of 750 mL/min/kg. The Ki in series [1] is 0.73 nM; in series [5], 10 nM; in series [6] it was 2.6 nM. Besides, the IC50 in series [2] stood at 3.6 nM. The Activity was 14% at Peregrin (Homo sapiens), 0% in series [3], 3.8% in series [4] and 76% in [7].
Consider `Cn1cc2c3c(c[nH]c3c1=O)CN(c1ccccn1)c1ccc(CS(C)(=O)=O)cc1-2`, for which, in the series on Mus musculus, the CL free turned out to be 157 mL/min/kg. For the same compound, the Ki in series [1] was 1.5 nM; in [5] it was 10 nM; in series [6] it was 1.2 nM. In series [2], this compound had a concentration for half-maximal inhibition (IC50) of 1.7 nM. In addition, the Activity was 1.2% on Peregrin (Homo sapiens), 0% in [3], 15% in [4] and 39% in [7].
